The values that follow come from US8497260B2, “2-arylbenzothiophene derivatives or pharmaceutically acceptable salts thereof, preparation method thereof, and pharmaceutical composition for the diagnosis or treatment of degenerative brain disease containing the same as active ingredient” (Industry-University Cooperation Foundation Sogang University, priority 2009, dated 2013).

SMILES strings stand for the structures.

T1 sequence (P05067 672-713 limits assumed): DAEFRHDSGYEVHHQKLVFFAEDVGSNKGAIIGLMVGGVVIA

This experiment concerns the target T1, β-amyloid (Aβ1-42) fibrils (Homo sapiens, UniProt P05067).
T1 construct: β-Amyloid peptide (Aβ1-42, 1 mg, Bachem); purchased Bachem
Description: Inhibitory binding assay against [125I]TZDM on β-amyloid (Aβ1-42) fibrils. Conditions: Aβ1-42 fibrils 10 nM, [125I]TZDM 0.05 nM, 10% ethanol, room temperature 3 hours, nonspecific binding with 2 μM ThT; read-out: Ki, relative binding affinity to [125I]TZDM (112). How it is done: β-Amyloid peptide (Aβ1-42, 1 mg, Bachem) was completely dissolved in 1 mL of DMSO, 9 mL of phosphate buffered saline (PBS) (pH 7.4) was added thereto and well mixed. The resulting mixture was incubated at 37° C. for 60 minutes to form β-amyloid fibrils, 0.5 mL was taken and transferred to each e-tube and placed into a refrigerator maintained at −80° C.
To determine whether β-amyloid peptide was properly formed into β-amyloid fibrils, 150 μL of 5 μM Thioflavin T (ThT) was added to 50 μL of incubated β-amyloid fibrils, the fluorescence intensity of ThT binding specifically to β-amyloid fibrils at excitation/emission wavelengths (λex/λem), e.g., 450 nm/480 nm, was detected using a spectrometer.
0.850 mL of 10% Ethanol was placed into 12 mm×75 mm borosilicate test tubes, and 50 μL of β-amyloid (Aβ1-42) fibrils were added such that the final reaction concentration became 10 nM. […] Here, the nonspecific binding was performed using 2 μM Thioflavin T (ThT).
One may read the Ki as a dissociation constant, usually derived from enzyme kinetics or from competition with a known ligand. Turning to `CN(C)c1ccnc(-c2cc3ccc(OCCF)cc3s2)n1` [Example 42, 2-[4-(N,N-dimethylamino)pyrimidine-2-yl]-6-(2-fluoroethoxy)benzothiophene], the Ki came to 250 pM.
On to `CNc1nccc(-c2cc3ccc(OCCF)cc3s2)n1` [Example 35, 2-[2-(N-monomethylamino)pyrimidine-4-yl]-6-(2-fluoroethoxy)benzothiophene], for which the Ki was determined as 550 pM.
Under `COc1cc(-c2cc3ccc(OCCCF)cc3s2)ccn1` [Example 30, 2-(2-methoxypyridine-4-yl)-6-(3-fluoropropoxy)benzothiophene] stands 790 pM; under `COc1cccc2sc(-c3ccc([N+](=O)[O-])cc3)cc12` [Example 1, 2-(4-nitrophenyl)-4-methoxybenzothiophene], 730 pM; under `Nc1ccc(-c2cc3ccc(OCCCF)cc3s2)cn1` [Example 24, 2-(2-aminopyridine-5-yl)-6-(3-fluoropropoxy)benzothiophene], 1180 pM.
In the case of `COc1ccc2cc(-c3ccnc(OCCF)n3)sc2c1` [Example 31, 2-[2-(2-fluoroethoxy)pyrimidine-4-yl]-6-methoxybenzothiophene], the Ki was found to be 610 pM.
In the case of `COc1ccc(-c2cc3ccc(OCCF)cc3s2)cn1` [Example 20, 2-(2-methoxypyridine-5-yl)-6-(2-fluoroethoxy)benzothiophene], the Ki was determined as 1320 pM.
Under `COc1ccc2cc(-c3ccc(OCCF)nn3)sc2c1` [Example 44, 2-[3-(2-fluoroethoxy)pyridazine-6-yl]-6-methoxybenzothiophene] stands 65 pM; under `COc1ccc2cc(-c3ccnc(OCCCF)n3)sc2c1` [Example 32, 2-[2-(3-fluoropropoxy)pyrimidine-4-yl]-6-methoxybenzothiophene], 460 pM.
Under `COc1ccc2cc(-c3ccnc(OCCF)c3)sc2c1` [Example 27, 2-[2-(2-fluoroethoxy)pyridine-4-yl]-6-methoxybenzothiophene] stands 830 pM.
Under `COc1nccc(-c2cc3ccc(OCCF)cc3s2)n1` [Example 34, 2-(2-methoxypyrimidine-4-yl)-6-(2-fluoroethoxy)benzothiophene] stands 470 pM; under `Nc1ccc(-c2cc3ccc(OCCF)cc3s2)nn1` [Example 47, 2-(3-aminopyridazine-6-yl)-6-(2-fluoroethoxy)benzothiophene], 440 pM; under `COc1ccc2cc(-c3ccc(N(C)C)cc3)sc2c1` [Example 15, 2-[4-(N,N-dimethylamino)phenyl]-6-methoxybenzothiophene], 1580 pM.
With `COc1ccc2cc(-c3ccnc(OCCCF)c3)sc2c1` [Example 28, 2-[2-(3-fluoropropoxy)pyridine-4-yl]-6-methoxybenzothiophene], the Ki was found to be 100 pM.
Under `CNc1ccnc(-c2cc3ccc(OCCCF)cc3s2)n1` [Example 43, 2-[4-(N-monomethylamino)pyrimidine-2-yl]-6-(3-fluoropropoxy)benzothiophene] stands 370 pM; under `COc1ccc(-c2cc3ccc(OCCCF)cc3s2)nn1` [Example 50, 2-(3-methoxypyridazine-6-yl)-6-(3-fluoropropoxy)benzothiophene], 180 pM.
As to `Nc1ccc(-c2cc3ccc(OCCF)cc3s2)cc1` [Example 9, 2-(4-aminophenyl)-6-(2-fluoroethoxy)benzothiophene], the Ki came to 380 pM.
Turning to `CNc1ccc(-c2cc3ccc(OCCF)cc3s2)nn1` [Example 48, 2-[3-(N-monomethylamino)pyridazine-6-yl]-6-(2-fluoroethoxy)benzothiophene], the Ki came to 300 pM.
Turning to `COc1ccc2cc(-c3ccc(OCCF)nc3)sc2c1` [Example 18, 2-[2-(2-fluoroethoxy)pyridine-5-yl]-6-methoxybenzothiophene], the Ki is 90 pM.
The result for `Nc1ccc(-c2cc3ccc(OCCCF)cc3s2)nn1` [Example 51, 2-(3-aminopyridazine-6-yl)-6-(3-fluoropropoxy)benzothiophene] reads 380 pM.
